Reference: ChEMBL document CHEMBL1201862, “PubChem BioAssay data set” (2004)
Activity calls are given as the source filed them.

Assays:
[1] = molecular target: T1, Lysosomal acid glucosylceramidase (Homo sapiens, UniProt P04062); test: Dose response cell-based high throughput screening assay to identify enhancers of beta-glucosidase activity. [Related pubchem assays: 784 ]; type: functional
T1 sequence (P04062 whole entry): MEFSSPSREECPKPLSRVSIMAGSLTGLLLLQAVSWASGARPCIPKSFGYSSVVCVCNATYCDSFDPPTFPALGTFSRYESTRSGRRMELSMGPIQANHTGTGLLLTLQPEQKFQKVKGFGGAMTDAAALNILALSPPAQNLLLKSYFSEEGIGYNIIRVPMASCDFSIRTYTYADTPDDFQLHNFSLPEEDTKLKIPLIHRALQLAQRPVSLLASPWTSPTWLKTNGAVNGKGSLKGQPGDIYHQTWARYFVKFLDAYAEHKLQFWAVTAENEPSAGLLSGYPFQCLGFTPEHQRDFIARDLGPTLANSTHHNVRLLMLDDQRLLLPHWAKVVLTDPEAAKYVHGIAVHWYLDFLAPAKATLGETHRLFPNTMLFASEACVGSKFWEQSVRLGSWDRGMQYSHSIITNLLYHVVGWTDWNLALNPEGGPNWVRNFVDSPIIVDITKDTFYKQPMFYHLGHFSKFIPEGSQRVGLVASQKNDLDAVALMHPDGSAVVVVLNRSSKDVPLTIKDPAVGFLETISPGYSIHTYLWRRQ

[2] = A cytotoxicity screen of small molecule inhibitors of the PhoP region in Salmonella typhi identified in the primary screen. [Related pubchem assays: 1850, 1864, 1985 ]; type: functional
[3] = molecular target: T2, Scavenger receptor class B member 1 (Mus musculus, UniProt Q61009); test: mouse SR-BI DiI-HDL uptake blockers – ldlA[mSR-BI] cells, fluorescence, cherry pick, dose response (AID 493194); type: functional, cell-based;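 further: cellular uptake of fluorescent DiI-labeled HDL measured as cell fluorescence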
T2 sequence (Q61009 whole entry): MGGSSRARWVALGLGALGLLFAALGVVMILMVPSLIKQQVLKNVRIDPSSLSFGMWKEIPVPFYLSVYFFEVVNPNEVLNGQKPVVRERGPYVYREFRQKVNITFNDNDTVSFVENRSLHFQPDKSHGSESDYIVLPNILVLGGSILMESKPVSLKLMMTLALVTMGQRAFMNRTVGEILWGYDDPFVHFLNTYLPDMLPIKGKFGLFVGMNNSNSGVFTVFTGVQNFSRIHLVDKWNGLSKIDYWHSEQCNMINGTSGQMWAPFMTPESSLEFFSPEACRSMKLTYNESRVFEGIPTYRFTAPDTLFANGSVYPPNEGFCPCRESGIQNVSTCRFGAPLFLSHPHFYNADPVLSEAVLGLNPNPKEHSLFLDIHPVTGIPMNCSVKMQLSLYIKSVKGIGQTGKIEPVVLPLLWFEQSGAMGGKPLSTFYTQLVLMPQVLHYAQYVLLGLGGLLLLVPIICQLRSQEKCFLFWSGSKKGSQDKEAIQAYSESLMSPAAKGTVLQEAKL

[4] = Counterscreen for IDE inhibitors: Luminescence-based cell-based high throughput dose response assay to identify compounds that are cytotoxic to HEK cells. [Related pubchem assays: 434962 (Primary screen (IDE inhibitors in singlicate)), 449730 (Counterscreen (Cytotoxicity in triplicate)), 435028 (Confirmation (IDE inhibitors in triplicate)) …; type: functional; conditions: HEK293
[5] = molecular target: T3, Insulin-degrading enzyme (Homo sapiens, UniProt P14735); test: Dose Response: Fluorescence polarization-based cell-based high throughput dose response assay for inhibitors of insulin-degrading enzyme (IDE). [Related pubchem assays: 434962 (Primary screen (IDE inhibitors in singlicate)), 449730 (Counterscreen (Cytotoxicity in triplicate)), 435028 (Confirmation (IDE inhibitors in triplicate)), 434984 (Summary …; type: functional
T3 sequence (P14735 whole entry): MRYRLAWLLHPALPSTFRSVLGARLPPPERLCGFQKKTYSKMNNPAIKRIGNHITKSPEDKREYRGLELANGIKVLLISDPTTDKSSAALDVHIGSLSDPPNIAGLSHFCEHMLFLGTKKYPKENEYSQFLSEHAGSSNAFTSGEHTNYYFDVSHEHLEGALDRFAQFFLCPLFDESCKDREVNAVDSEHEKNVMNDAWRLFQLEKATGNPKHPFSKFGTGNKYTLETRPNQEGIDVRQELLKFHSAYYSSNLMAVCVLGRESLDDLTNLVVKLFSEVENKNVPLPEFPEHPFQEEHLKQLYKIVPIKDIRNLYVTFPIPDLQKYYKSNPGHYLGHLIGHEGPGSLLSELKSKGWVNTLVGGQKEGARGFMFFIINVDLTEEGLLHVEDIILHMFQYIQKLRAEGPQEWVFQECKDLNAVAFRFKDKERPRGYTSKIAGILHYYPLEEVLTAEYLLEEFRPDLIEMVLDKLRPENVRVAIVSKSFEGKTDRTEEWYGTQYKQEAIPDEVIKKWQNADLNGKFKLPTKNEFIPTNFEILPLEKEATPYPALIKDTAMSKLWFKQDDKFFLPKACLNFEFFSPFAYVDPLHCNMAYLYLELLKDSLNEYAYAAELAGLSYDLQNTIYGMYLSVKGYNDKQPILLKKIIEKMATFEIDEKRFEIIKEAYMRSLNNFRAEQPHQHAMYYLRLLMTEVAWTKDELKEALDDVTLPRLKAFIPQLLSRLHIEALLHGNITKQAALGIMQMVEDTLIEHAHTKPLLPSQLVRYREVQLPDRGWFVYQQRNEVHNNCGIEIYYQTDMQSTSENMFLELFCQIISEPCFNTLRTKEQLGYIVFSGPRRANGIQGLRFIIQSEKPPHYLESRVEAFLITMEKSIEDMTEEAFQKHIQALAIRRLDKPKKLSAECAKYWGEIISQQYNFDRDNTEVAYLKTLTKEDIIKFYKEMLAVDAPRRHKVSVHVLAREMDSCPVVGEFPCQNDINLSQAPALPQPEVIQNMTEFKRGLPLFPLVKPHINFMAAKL

[6] = system: HEK293; test: inhibition of NOD1-driven NF-kB reporter – cell-based, luminescence, uHTS, primary screen (AID 1578); type: functional; conditions: Homo sapiens
[7] = system: HEK293; test: cells; type: functional, cell-based; conditions: Homo sapiens
[8] = system: HEK293; test: cells; type: functional, cell-based; conditions: Homo sapiens; remark: listed apart in the source
[9] = system: HEK293; test: NOD2 signaling inhibitors in MDP-stimulated cells, cell-based, uHTS, luminescence (AID 2001); type: functional; conditions: Homo sapiens
[10] = molecular target: Tumor necrosis factor (Homo sapiens, UniProt P01375); test: analog potency on TNFa NF-kB signaling – cell-based, revised, SAR follow-up (AID 2337); type: functional
Sequence of Tumor necrosis factor (P01375 whole entry, the tested form may be a part): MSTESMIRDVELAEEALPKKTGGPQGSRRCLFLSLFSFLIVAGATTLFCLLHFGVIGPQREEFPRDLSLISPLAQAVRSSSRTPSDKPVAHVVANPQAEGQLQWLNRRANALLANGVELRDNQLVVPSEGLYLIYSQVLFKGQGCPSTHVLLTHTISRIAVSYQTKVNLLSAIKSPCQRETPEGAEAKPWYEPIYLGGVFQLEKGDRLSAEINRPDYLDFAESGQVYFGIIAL

[11] = molecular target: T4, Nucleotide-binding oligomerization domain-containing protein 1 (Homo sapiens, UniProt Q9Y239); test: blockers of NOD1 pathway activity – revised, SAR follow-up (AID 2333); type: functional
T4 sequence (Q9Y239 whole entry): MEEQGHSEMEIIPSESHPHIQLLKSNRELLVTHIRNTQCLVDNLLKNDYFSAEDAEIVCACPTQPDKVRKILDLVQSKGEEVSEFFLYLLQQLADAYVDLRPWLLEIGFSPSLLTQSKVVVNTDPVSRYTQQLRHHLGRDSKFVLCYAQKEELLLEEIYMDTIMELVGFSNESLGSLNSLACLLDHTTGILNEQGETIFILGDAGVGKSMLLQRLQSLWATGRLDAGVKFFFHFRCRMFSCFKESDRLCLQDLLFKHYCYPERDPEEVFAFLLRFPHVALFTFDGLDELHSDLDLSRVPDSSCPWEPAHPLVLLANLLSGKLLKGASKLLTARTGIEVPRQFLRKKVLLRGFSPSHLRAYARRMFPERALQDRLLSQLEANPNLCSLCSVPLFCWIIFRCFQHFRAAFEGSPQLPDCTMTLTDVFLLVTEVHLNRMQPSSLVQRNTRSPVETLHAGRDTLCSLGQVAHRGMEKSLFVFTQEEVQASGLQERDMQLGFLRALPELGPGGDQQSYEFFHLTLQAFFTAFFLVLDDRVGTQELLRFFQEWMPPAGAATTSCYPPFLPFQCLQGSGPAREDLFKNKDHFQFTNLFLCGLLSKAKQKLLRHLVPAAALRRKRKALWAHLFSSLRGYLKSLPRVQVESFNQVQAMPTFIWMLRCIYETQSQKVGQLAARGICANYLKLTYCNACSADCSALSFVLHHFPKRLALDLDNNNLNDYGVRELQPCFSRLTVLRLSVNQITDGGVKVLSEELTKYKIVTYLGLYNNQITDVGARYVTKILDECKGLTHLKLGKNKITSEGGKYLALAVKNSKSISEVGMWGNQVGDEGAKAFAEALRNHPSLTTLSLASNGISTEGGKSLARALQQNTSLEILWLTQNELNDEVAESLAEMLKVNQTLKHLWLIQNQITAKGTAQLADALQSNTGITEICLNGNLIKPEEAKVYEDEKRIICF

[12] = molecular target: Nucleotide-binding oligomerization domain-containing protein 2 (Homo sapiens, UniProt Q9HC29); test: PubChem AID 2334; type: functional
Sequence of Nucleotide-binding oligomerization domain-containing protein 2 (Q9HC29 whole entry, the tested form may be a part): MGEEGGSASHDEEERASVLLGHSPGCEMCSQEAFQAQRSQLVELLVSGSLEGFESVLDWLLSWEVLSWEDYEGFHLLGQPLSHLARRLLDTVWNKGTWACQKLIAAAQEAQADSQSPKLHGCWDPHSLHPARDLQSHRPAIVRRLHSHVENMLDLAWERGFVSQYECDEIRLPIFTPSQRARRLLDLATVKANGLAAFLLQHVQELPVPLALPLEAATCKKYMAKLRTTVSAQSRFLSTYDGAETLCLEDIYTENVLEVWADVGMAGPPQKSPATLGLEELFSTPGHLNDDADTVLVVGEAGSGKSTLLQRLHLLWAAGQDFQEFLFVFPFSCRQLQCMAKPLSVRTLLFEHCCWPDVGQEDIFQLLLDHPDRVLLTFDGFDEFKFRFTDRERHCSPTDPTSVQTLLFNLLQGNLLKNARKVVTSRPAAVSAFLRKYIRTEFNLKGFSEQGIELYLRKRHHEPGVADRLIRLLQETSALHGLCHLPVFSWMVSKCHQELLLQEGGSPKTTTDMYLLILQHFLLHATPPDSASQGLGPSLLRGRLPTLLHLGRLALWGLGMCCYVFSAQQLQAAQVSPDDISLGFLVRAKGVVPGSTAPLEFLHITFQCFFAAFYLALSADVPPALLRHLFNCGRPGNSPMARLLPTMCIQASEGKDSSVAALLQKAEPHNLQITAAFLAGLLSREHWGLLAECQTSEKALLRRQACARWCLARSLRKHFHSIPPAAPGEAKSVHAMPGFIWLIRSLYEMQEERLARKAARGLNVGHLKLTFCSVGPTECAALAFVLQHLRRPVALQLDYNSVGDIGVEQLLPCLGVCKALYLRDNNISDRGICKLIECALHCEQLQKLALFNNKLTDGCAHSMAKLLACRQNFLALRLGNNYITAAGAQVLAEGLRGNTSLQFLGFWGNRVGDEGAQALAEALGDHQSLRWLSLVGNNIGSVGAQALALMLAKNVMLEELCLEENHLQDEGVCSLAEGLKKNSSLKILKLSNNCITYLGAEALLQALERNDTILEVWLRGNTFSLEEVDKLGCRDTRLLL

[13] = system: HEK293; test: cells; conditions: Homo sapiens
[14] = molecular target: T5, Mucolipin-3 (Homo sapiens, UniProt Q8TDD5); test: Dose response cell-based high-throughput screening assay for agonists of the transient receptor potential channel ML3 (TRPML3). [Related pubchem assays: 1526, 1424, 1448 ]; type: functional
T5 sequence (Q8TDD5 whole entry): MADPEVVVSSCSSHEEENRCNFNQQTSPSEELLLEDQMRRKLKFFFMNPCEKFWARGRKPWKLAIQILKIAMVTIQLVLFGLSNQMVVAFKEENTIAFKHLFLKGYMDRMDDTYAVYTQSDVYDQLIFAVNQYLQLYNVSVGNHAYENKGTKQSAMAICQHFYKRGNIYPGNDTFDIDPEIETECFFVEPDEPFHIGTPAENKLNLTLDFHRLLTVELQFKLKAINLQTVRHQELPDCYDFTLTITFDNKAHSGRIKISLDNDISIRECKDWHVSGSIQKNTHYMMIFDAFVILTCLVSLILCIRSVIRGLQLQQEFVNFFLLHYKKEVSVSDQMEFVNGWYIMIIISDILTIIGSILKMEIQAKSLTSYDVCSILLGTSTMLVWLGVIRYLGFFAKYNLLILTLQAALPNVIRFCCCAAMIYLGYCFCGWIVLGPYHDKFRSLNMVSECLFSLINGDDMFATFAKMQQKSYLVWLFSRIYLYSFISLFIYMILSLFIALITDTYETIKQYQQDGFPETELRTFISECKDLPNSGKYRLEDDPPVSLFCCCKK

[15] = molecular target: Ion channel NompC (Danio rerio, UniProt Q7T1G6); test: Fluorescence counterscreen assay for TRPML3 agonists: dose response cell-based high-throughput screening assay to identify agonists of the transient receptor potential channel N1 (TRPN1). [Related pubchem assays: 1526, 1424, 1448 ]; type: functional
Sequence of Ion channel NompC (Q7T1G6 whole entry): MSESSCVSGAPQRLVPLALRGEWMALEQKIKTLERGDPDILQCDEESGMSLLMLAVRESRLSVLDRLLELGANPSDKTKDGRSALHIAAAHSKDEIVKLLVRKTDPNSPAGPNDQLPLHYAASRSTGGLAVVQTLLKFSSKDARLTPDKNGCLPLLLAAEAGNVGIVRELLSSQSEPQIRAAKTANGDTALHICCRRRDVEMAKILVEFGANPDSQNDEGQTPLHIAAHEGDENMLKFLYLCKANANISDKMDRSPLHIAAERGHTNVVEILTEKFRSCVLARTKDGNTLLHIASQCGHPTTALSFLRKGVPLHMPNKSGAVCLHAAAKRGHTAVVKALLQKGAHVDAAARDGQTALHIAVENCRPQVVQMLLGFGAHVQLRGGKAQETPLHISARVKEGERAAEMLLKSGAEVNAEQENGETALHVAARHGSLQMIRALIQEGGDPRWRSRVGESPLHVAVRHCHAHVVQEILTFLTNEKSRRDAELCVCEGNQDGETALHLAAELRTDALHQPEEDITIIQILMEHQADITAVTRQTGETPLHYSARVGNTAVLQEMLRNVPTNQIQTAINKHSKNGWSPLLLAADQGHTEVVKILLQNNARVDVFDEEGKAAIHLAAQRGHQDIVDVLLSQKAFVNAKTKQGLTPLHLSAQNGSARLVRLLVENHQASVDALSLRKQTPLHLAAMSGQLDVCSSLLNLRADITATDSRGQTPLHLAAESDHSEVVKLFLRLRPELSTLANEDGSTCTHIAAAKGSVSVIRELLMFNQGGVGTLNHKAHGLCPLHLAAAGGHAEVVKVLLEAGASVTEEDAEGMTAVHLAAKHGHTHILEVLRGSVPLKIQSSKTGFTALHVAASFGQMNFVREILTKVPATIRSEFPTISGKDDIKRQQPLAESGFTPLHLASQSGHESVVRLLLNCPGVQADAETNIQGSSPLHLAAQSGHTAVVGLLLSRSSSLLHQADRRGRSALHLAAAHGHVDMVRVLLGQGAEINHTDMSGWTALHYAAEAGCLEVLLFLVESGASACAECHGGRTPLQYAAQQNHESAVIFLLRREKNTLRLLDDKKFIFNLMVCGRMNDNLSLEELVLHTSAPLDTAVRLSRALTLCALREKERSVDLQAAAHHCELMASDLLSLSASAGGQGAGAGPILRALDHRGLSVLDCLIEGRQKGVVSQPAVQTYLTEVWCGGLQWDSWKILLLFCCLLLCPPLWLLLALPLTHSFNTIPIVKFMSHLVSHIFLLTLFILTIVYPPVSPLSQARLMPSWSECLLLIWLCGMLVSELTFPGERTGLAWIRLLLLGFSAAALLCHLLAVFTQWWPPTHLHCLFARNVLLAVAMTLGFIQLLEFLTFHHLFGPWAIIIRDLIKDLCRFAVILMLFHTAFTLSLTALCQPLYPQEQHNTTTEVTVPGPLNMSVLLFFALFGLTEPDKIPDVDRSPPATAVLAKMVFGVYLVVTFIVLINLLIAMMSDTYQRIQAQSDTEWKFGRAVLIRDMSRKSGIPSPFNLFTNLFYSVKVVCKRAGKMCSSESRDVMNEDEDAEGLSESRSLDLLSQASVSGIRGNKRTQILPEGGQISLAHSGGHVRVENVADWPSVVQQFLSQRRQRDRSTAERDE

[16] = molecular target: Dual specificity protein phosphatase 3 (Homo sapiens, UniProt P51452); test: inhibition constants for human DUSP3 – biochemical, colorimetric, SAR follow-up (AID 2004)
Sequence of Dual specificity protein phosphatase 3 (P51452 whole entry): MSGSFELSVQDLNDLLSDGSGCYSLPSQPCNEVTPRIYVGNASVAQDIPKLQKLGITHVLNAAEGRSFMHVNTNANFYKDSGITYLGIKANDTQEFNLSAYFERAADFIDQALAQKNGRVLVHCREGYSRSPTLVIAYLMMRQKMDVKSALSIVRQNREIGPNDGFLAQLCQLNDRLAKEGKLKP

[17] = system: INS1; test: INS-1E survival protection against cytokine death – cell-based, luminescence, retest, dose response (AID 449756); type: functional; conditions: Rattus norvegicus;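 further: cell death triggered by IL-1 beta plus TNF-alpha plus IFN-gamma mixture; protective hits raise ATP signal compared with cytokine alone wells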
[18] = molecular target: Large T antigen (Simian virus 40, UniProt P03070); type: functional, Betapolyomavirus macacae;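 further: Confirmatory-stage PubChem screen for compounds that inhibit SV40 T antigen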
Sequence of Large T antigen (P03070 whole entry): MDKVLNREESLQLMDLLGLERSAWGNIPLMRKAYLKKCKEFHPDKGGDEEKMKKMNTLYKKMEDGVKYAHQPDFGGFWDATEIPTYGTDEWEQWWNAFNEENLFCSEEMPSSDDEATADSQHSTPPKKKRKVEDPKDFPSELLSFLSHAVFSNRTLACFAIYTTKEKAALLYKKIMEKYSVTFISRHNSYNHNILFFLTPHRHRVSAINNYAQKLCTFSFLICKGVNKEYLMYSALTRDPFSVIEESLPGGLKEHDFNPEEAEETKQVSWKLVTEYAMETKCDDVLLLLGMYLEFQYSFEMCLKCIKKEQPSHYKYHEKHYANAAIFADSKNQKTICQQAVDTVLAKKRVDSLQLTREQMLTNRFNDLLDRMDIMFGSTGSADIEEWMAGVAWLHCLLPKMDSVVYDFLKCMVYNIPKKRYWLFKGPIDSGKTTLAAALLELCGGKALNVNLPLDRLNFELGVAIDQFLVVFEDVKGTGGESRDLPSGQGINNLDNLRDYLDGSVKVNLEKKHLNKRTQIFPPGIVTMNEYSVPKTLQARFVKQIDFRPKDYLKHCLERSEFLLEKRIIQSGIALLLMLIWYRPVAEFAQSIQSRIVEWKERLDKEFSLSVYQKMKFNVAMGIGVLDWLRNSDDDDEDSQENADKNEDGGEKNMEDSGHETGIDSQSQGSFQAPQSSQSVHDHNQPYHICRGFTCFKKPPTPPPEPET

[19] = molecular target: Induced myeloid leukemia cell differentiation protein Mcl-1 (Homo sapiens, UniProt Q07820); type: functional
Sequence of Induced myeloid leukemia cell differentiation protein Mcl-1 (Q07820 whole entry): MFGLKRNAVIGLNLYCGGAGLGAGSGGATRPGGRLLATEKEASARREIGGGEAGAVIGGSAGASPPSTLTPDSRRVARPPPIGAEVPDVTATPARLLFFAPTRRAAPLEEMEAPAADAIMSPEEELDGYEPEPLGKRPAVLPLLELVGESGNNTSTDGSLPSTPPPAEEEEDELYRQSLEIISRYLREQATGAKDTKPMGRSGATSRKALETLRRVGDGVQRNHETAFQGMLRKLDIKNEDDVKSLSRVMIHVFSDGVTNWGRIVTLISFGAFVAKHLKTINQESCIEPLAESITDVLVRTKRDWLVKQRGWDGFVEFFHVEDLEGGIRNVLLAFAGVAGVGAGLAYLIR

[20] = molecular target: Eukaryotic translation initiation factor 4E (Mus musculus, UniProt P63073); test: blockers of eIF4G binding by eIF4E – biochemical, TR-FRET, dose response (AID 855); type: functional;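 further: potency for disrupting eIF4E binding to eIF4GI seen as loss of FRET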
Sequence of Eukaryotic translation initiation factor 4E (P63073 whole entry): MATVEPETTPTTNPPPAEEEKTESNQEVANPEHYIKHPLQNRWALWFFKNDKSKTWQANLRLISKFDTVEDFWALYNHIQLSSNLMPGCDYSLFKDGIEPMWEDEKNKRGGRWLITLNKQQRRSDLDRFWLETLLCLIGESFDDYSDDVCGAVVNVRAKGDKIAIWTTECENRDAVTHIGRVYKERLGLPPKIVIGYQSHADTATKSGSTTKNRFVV

SMILES: CCN1CCN(C(c2ccc(OC)c(OC)c2)c2nnnn2C(C)(C)C)CC1 (configuration not stated)
- EC50 [1]: > 50 µM (not active)

SMILES: Oc1c(Br)cc(Br)cc1CNc1ccccn1
- EC50 [2]: > 50 µM (active)

SMILES: CCc1cc2cc3c(cc2nc1SCC(=O)OC(C)C)OCO3
- AC50 [3]: 0.366 µM (active)

SMILES: COc1ccc2[nH]c3c(NCc4ccco4)ncnc3c2c1
- IC50 [4]: 19.3 µM (not active)
- IC50 [5]: 21.2 µM (not active)

SMILES: O=C1CC(Cc2ccccc2)C(=O)N1c1ccc(Cl)cn1 (configuration not stated)
- EC50 [1]: > 10 µM (not active)

SMILES: CCCCn1c(SCC(=O)Nc2nnc(C(C)C)s2)nc2c1c(=O)n(C)c(=O)n2C
- EC50 [6]: 7.02 µM (active)
- IC50 [7]: > 20 µM (inactive)
- IC50 [8]: > 20 µM (inactive)
- IC50 [9]: 9.58 µM (active)
- IC50 [10]: 5.82 µM (active)
- IC50 [11]: 5.79 µM (active)
- IC50 [12]: 6.89 µM (active)
- IC50 [13]: > 20 µM (inactive)

SMILES: CCCOc1ccc(S(=O)(=O)n2cc(F)c(=O)[nH]c2=O)cc1
- EC50 [2]: > 50 µM (active)

SMILES: O=S(=O)(c1ccc2ccccc2c1)N1CCCCCC1
- EC50 [14]: 1.71 µM (active)
- EC50 [15]: > 29.9 µM (not active)

SMILES: COc1ccc(C(=O)C2CCN(CC(=O)Nc3cc(C)cc(C)c3)CC2)cc1
- EC50 [2]: > 50 µM (active)

SMILES: COc1cc2c(C(=O)NCCCN3CCN(c4cccc(Cl)c4)CC3)cn(C)c(=O)c2cc1OC
- EC50 [1]: > 50 µM (not active)

SMILES: CCN1C(=O)/C(=C/c2ccoc2)C(=O)NC1=S
- Ki [16]: 56.7 µM (inactive)

SMILES: CCOc1ccccc1Nc1nc(-c2sc(NC(=O)c3cccc(Cl)c3)nc2C)cs1
- AC50 [3]: 5.75 µM (active)

SMILES: COc1ccc(OC)c(CCNC(=O)c2ccc3c(c2)N(Cc2ccc(F)cc2)CCS3)c1
- AC50 [3]: 1.7 µM (active)

SMILES: CC1=CC(C)(C)N(C(=O)CSc2nnc(-c3ccc(C)cc3)o2)c2ccc(C)cc21
- EC50 [14]: 7.81 µM (active)
- EC50 [15]: > 29.9 µM (not active)
- AC50 [17]: 14.8 µM (active)

SMILES: CCOc1cc(/C=C2/N=C(c3ccc(NC(C)=O)cc3)OC2=O)ccc1OCc1ccccc1
- Ki [16]: 22.9 µM (inactive)

SMILES: COc1ccc(C(=O)c2sc3nc(-c4ccccc4)ccc3c2N)cc1
- IC50 [4]: 25.4 µM (not active)
- IC50 [5]: > 55.9 µM (not active)

SMILES: Nc1nc2ccccc2n1Cc1ccccc1Cl
- IC50 [10]: 12.5 µM (active)
- IC50 [11]: 12.9 µM (active)
- IC50 [12]: 15.3 µM (active)
- IC50 [13]: > 20 µM (inactive)

SMILES: O=c1/c(=C\c2cc([N+](=O)[O-])cc([N+](=O)[O-])c2O)sc2nc3ccccc3n12
- IC50 [4]: > 55.7 µM (not active)
- IC50 [18]: 52.8 µM (active)
- IC50 [5]: > 55.9 µM (not active)
- IC50 [19]: 1.54 µM (active)
- IC50 [20]: 50 µM (inactive)
